Results from US5225416A, “1,2,3,6-tetrahydropyridine derivatives useful for improving cerebral blood circulation” (Richter Gedeon Vegyeszeti Termekek Gyara Rt., priority 1990, dated 1993).

Experiments:
Format in all cases: in vivo
male (CFLP LATI) mice [1] = assay: Hypobaric hypoxia (HH), antihypoxic effect in mice; details: Mus musculus, po, read-out: ED50 hypobaric hypoxia
Protocol: (§1) Male (CFLP LATI) mice weighing 24-26 g and male spontaneous hypertensive rats (SHR) weighing 160-180 g were used as test animals. The test compounds were administered orally in a volume of 10 ml/kg 1 hour before the test.
Animals surviving by 100% longer than the average survival of the control group were considered as protected.

male (CFLP LATI) mice [2] = assay: Anoxic asphyxia (asphyxial anoxia), antihypoxic effect in mice; details: Mus musculus, po, read-out: ED50 asphyxial anoxia
Protocol: as §1
(§2) The mice were treated after 16 hours fasting with the oral dosage of the test compounds. 1 hour after the treatment the animals were placed to 100 ml sealed glasses and the survival time of the animals was measured. The groups consisting of 10 animals and treated with the test compounds were considered protected if the average survival time was by 30 percent longer than the survival of the group treated with placebo. From the percentage of the surviving animals the 50% effective dosage (ED50) was calculated by probit analysis.

male (CFLP LATI) mice [3] = assay: Cytotoxic hypoxia (KCN), antihypoxic effect in mice; details: Mus musculus, po, read-out: ED50 cytotoxic hypoxia
[4] = test system: mice and spontaneous hypertensive rats; assay: Hypoxic models taken together (asphyxial anoxia, hypobaric hypoxia, cytotoxic hypoxia, hypobaric hypoxia SHR)
Protocol: as §1, §2
After 16 hours of fasting and 1 hour of pretreatment the animals were placed to a 6-liter exsiccator and the pressure was reduced within 20 seconds to 22.66 kPa (170 Hgmm), and from this time on the survival time was measured until the last breathing movement. Animals surviving by 100% longer than the average survival of the control group were considered as protected.
The animals were treated after 1 hour pretreatment with an i.v. dosage of 5 mg/kg potassium cyanide. The survival time was measured from the administration of potassium cyanide to the last breathing movement. The protected condition was determined according to the method described for anoxic asphyxia.
(§3) The rats were placed to a 6-liter exsiccator 1 hour after pretreatment to each exsiccator 2 rats were placed. The pressure was reduced in the exsiccator within 20 seconds to 22.66 kPa (170 Hgmm) and the survival time was measured from this time on until the last breathing movement. Animals which survived by 30 percent longer than the average survival of the control group were considered as protected. From the percentage of the protected animals the ED50 i.e. the 50% effective dosage was calculated by probit analysis with the pertaining 95% fiducial limit.
For testing the active ingredients various forms of hypoxia were used. In case of asphyxial anoxia the complete loss of the oxygen supply, at hypobaric hypoxia the reducing of the oxygen saturation condition of the haemoglobin and in case of cytotoxic hypoxia the blocking of the mytochondrial breathing enzime cause a functional disorganisation and necrosis of the cells, even death in otherwise healthy mice. The spontaneous hypertensive rats are more sensitive to the hypoxial influences than the normotensive animals as the survival chance of a person suffering from hypertension is also worse after suffering from hypoxial influences.

[5] = test system: male spontaneous hypertensive rats (SHR); assay: Hypobaric hypoxia in SHR rats; details: Rattus norvegicus, po, 1 hour before the test, 22.66 kPa, protected = survival 30 percent longer, 95% fiducial limit on next line
Protocol: as §1, §3

[6] = 1 hour before the test, mice, 22.66 kPa, protected = survival 100% longer, 95% fiducial limit on next line
[7] = 1 hour before the test, mice, protected = survival 30 percent longer, probit analysis
[8] = 1 hour before the test, mice, KCN 5 mg/kg i.v., 95% fiducial limit on next line

SMILES	ED50 (male (CFLP LATI) mice [1]; [6]) [mg/kg]	ED50 (male (CFLP LATI) mice [2]; [7]) [mg/kg]	ED50 (male (CFLP LATI) mice [3]; [8]) [mg/kg]	effect in all hypoxic models used ([4]; all hypoxic models, in words)	survival time of the animals ([4]; all hypoxic models, in words)	ED50 [5] [mg/kg]	ED50 (male (CFLP LATI) mice [1]) [mg/kg]	ED50 (male (CFLP LATI) mice [2]) [mg/kg]	ED50 (male (CFLP LATI) mice [3]) [mg/kg]	dosage relative to that of vincamine ([4]; antihypoxic effect on two models)	antihypoxic effect ([4]; number of models on which the effect could be proved)
CC[C@]12CCCN3CCc4c(n(c5ccccc45)[C@@](O)(C(=O)OC)C1)[C@@H]32 [Vincamin, (+)-14β-hydroxy-14α-methoxy-carbonyl-14,15-dihydro-eburnamenine]	60.7	51.1	27	effective	prolonged	27.9	–	–	–	–	–
NC(=O)CN1CCCC1=O [Piracetam, 2-oxo-1-pyrrolidinyl-acetic amide]	–	–	–	–	–	–	100	100	132	5-10 times	could be proved on two models
OC(CCN1CC=C(c2ccccc2)CC1)c1ccc(Cc2ccc(Cl)cc2)cc1 (stereo not drawn) [Example 0207724]	27.5	50	17.5	–	–	8.2	–	–	–	–	–
